Data taken from ChEMBL document CHEMBL1201862, “PubChem BioAssay data set” (2004).
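Cultured in 96-well plates, cells were exposed to test compound for 48 hours across five concentrations. GI50: concentration for 50% inhibition of growth.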 Active and inactive are the calls of the source. Cut-off read from the data, not from the text of the source: active = GI50 up to about 1.1 µM and inactive = higher.

Assays:
Experiment in all cases: growth of human tumour cells (NCI), 48 h
[1] = system: HOP-92
[2] = system: NCI-H226
[3] = system: RXF 393
[4] = system: OVCAR-4
[5] = system: OVCAR-5
[6] = system: KM-20L2
[7] = system: U-251
[8] = system: OVCAR-8
[9] = system: K562
[10] = system: HOP-62
[11] = system: 786-0
[12] = system: SW-620
[13] = system: ACHN
[14] = system: NCI/ADR-RES
[15] = system: MCF7

Measured: GI50

CC1=C[C@@H]2Cc3occc3C(C)(C)[C@@H]2CC1
inactive: [1] 19.5 µM | [2] 17.9 µM | [3] 18.7 µM | [4] 29.4 µM | [5] 22.8 µM | [6] 18.5 µM | [7] 18.5 µM | [8] 19.5 µM | [9] 21.1 µM | [10] 32.4 µM | [11] 19.4 µM | [12] 17.1 µM | [13] 16 µM

CC(=O)C(=Cc1cn(C)c(=O)n(C)c1=O)C(C)=O
inactive: [1] 2.62 µM | [2] 116 µM | [3] 60.1 µM | [4] 105 µM | [5] 97.7 µM | [6] 85.7 µM | [7] > 96.8 µM | [8] 126 µM | [9] 138 µM | [14] 93.1 µM | [10] 137 µM | [12] 106 µM | [15] 159 µM

N#C/N=C(/N)NCO
inactive: [1] > 100 µM | [2] > 100 µM | [3] 16.5 µM | [4] > 100 µM | [5] > 100 µM | [6] > 51.4 µM | [7] > 53.7 µM | [8] > 100 µM | [9] > 76 µM | [10] > 100 µM | [11] > 43.8 µM | [12] > 37.8 µM | [13] > 100 µM

COC(=O)/C(=N/O)C(C(=O)OC)C(=O)C(=O)Nc1c(Cl)cc(C)cc1S(=O)(=O)O (stereo not given)
inactive: [1] > 100 µM | [2] > 100 µM | [3] > 100 µM | [4] > 100 µM | [5] > 100 µM | [6] > 100 µM | [7] > 100 µM | [8] > 100 µM | [9] 67 µM | [10] > 100 µM | [11] > 100 µM | [13] > 100 µM

O=C(O)CCNCCCNCCC(=O)O
inactive: [1] > 100 µM | [2] > 100 µM | [3] > 100 µM | [4] > 100 µM | [5] > 100 µM | [6] > 100 µM | [7] > 100 µM | [8] > 100 µM | [9] > 100 µM | [10] > 100 µM | [11] > 100 µM | [12] > 100 µM | [13] > 100 µM

O=C(CC(=O)n1nc(-c2ccccc2)c(/N=N/c2ccc(Cl)cc2)c1-c1ccccc1)Nc1ccc(Cl)cc1
inactive: [1] > 91 µM | [2] > 100 µM | [4] > 100 µM | [5] > 100 µM | [6] > 76 µM | [7] > 100 µM | [8] 63.4 µM | [9] > 41.7 µM | [10] > 100 µM | [11] > 43.3 µM | [12] > 44.1 µM | [13] > 100 µM

CCCCCCCCOC(CO)CO
inactive: [1] 44.6 µM | [2] > 100 µM | [4] > 100 µM | [5] > 100 µM | [6] > 100 µM | [7] > 100 µM | [8] > 100 µM | [9] > 100 µM | [10] > 100 µM | [11] > 100 µM | [12] > 100 µM | [13] > 100 µM

O=c1nc(-c2ccccc2)scc1-c1ccccc1
inactive: [1] 67.9 µM | [2] > 100 µM | [3] 74.5 µM | [4] > 100 µM | [6] > 100 µM | [7] 98.6 µM | [8] > 100 µM | [9] > 100 µM | [10] 44.7 µM | [11] 78.3 µM | [12] > 100 µM | [13] > 100 µM

COC(=O)C1CCC[C@H]2C(CO)=C(C)C(=O)[C@@H]12 (stereo not given in full)
inactive: [1] > 100 µM | [2] > 100 µM | [3] > 100 µM | [4] > 100 µM | [5] > 100 µM | [6] > 100 µM | [7] > 100 µM | [8] > 100 µM | [9] > 100 µM | [10] > 100 µM | [11] > 100 µM | [12] > 100 µM | [13] > 100 µM

Cc1nc2c(o1)/C(=N\c1ccccc1)c1ccccc1/C2=N/c1ccccc1
inactive: [1] 49.2 µM | [3] > 100 µM | [4] 58.7 µM | [5] > 100 µM | [6] > 100 µM | [7] 79.3 µM | [8] > 100 µM | [9] 33.8 µM | [10] > 100 µM | [11] 45.1 µM | [12] 16.9 µM | [13] 53.6 µM

Cc1cc(O)c2c(c1)C(=O)c1cc(O)cc(O)c1C2=O [EMODIN]
inactive: [1] 14.4 µM | [2] 20.1 µM | [3] 41 µM | [4] 30.6 µM | [5] 39.4 µM | [6] 40.8 µM | [7] 24.7 µM | [10] 14.4 µM | [12] 27.6 µM | [13] 18.6 µM
